Structures can show the parent of a compound that is named as a salt.

In one test the target is human norepinephrine transporter (hNET) (Homo sapiens, UniProt P23975). Put plainly: hNET uptake, Protocol B: cell based norepinephrine reuptake assay using recombinant hNET (MDCK-Net6 cells). The settings on record: MDCK-Net6, read-out: NE uptake (Protocol B) % inhibition @ 6 uM.
Sequence of human norepinephrine transporter (hNET) (P23975 whole entry): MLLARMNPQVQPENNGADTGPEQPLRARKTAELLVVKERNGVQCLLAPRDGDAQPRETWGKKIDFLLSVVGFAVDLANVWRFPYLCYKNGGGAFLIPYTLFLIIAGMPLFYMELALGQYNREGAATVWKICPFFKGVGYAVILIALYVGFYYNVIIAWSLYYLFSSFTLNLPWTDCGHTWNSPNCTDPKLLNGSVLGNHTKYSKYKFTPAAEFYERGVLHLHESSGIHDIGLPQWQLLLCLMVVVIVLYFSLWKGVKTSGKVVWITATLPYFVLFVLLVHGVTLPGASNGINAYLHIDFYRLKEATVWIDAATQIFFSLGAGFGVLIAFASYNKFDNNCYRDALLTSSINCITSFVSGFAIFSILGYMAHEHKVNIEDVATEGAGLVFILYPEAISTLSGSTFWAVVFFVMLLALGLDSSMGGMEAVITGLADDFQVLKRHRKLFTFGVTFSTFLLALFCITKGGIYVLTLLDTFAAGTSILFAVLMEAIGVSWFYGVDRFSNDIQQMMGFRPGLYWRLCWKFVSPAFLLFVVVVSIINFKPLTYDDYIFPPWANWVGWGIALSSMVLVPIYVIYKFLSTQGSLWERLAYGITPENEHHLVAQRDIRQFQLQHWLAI
Regarding `CN(C)CCCCN1c2ccccc2N(c2ccc(F)cc2Cl)S1(=O)=O` [Example 88, 4-[3-(2-chloro-4-fluorophenyl)-2,2-dioxido-2,1,3-benzothiadiazol-1(3H)-yl]-N,N-dimethylbutan-1-amine hydrochloride], the inhibition at 6 µM was 57%.

Still in this test, the particulars now being: NE uptake (Protocol B) IC50 (nM), MDCK-Net6 cells, 3H-NE 16 nM.
In the case of `CNCCCN1c2ccccc2N(c2cccc(C(F)(F)F)c2)S1(=O)=O` [Example 51, 3-{2,2-dioxido-3-[3-(trifluoromethyl)phenyl]-2,1,3-benzothiadiazol-1(3H)-yl}-N-methylpropan-1-amine hydrochloride], the IC50 was 3170 nM.

Take `CNCCCN1c2ccccc2N(c2ccccc2Cl)S1(=O)=O` [Example 52, 3-[3-(2-chlorophenyl)-2,2-dioxido-2,1,3-benzothiadiazol-1(3H)-yl]-N-methylpropan-1-amine hydrochloride]: the IC50 is 2.74 nM.

On to `CNCCCN1c2ccccc2N(c2cccc(Br)c2)S1(=O)=O` [Example 53, 3-[3-(3-bromophenyl)-2,2-dioxido-2,1,3-benzothiadiazol-1(3H)-yl]-N-methylpropan-1-amine hydrochloride], for which the IC50 is 24.5 nM.

For `NCCCN1c2ccccc2N(c2ccccc2F)S1(=O)=O` [Example 56, 3-[3-(2-fluorophenyl)-2,2-dioxido-2,1,3-benzothiadiazol-1(3H)-yl]propan-1-amine], the IC50 came to 13.1 nM.

Regarding `CCNCCCN1c2ccccc2N(c2ccccc2F)S1(=O)=O` [Example 57, N-ethyl-3-[3-(2-fluorophenyl)-2,2-dioxido-2,1,3-benzothiadiazol-1(3H)-yl]propan-1-amine], the IC50 is 2.56 nM.

Consider `NCCCCN1c2ccccc2N(c2ccccc2F)S1(=O)=O` [Example 58, 4-[3-(2-fluorophenyl)-2,2-dioxido-2,1,3-benzothiadiazol-1(3H)-yl]butan-1-amine], for which the IC50 was 3270 nM.

For `CNCCCN1c2ccccc2N(c2ccc(F)cc2Cl)S1(=O)=O` [Example 60, 3-[3-(2-Chloro-4-fluorophenyl)-2,2-dioxido-2,1,3-benzothiadiazol-1(3H)-yl]-N-methylpropan-1-amine hydrochloride], the IC50 was 40.2 nM.

On to `NCCCN1c2ccccc2N(c2ccc(F)cc2Cl)S1(=O)=O` [Example 61, 3-[3-(2-Chloro-4-fluorophenyl)-2,2-dioxido-2,1,3-benzothiadiazol-1(3H)-yl]propan-1-amine hydrochloride], for which the IC50 stood at 113 nM.

Turning to `CNCCCN1c2ccccc2N(c2ccc(F)cc2C)S1(=O)=O` [Example 62, 3-[3-(4-fluoro-2-methylphenyl)-2,2-dioxido-2,1,3-benzothiadiazol-1(3H)-yl]-N-methylpropan-1-amine], the half-maximal inhibitory concentration (IC50) is 50.9 nM.

Turning to `Cc1cc(F)ccc1N1c2ccccc2N(CCCN)S1(=O)=O` [Example 63, 3-[3-(4-fluoro-2-methylphenyl)-2,2-dioxido-2,1,3-benzothiadiazol-1(3H)-yl]propan-1-amine], the IC50 is 324 nM.

With `CNCCCN1c2ccccc2N(c2ccc(F)cc2OC)S1(=O)=O` [Example 64, 3-[3-(4-fluoro-2-methoxyphenyl)-2,2-dioxido-2,1,3-benzothiadiazol-1(3H)-yl]-N-methylpropan-1-amine], the IC50 amounted to 295 nM.

Regarding `NCCCCCN1c2ccccc2N(c2ccccc2F)S1(=O)=O` [Example 65, 5-[3-(2-fluorophenyl)-2,2-dioxido-2,1,3-benzothiadiazol-1(3H)-yl]pentan-1-amine], the IC50 was 14.1 nM.

Consider `CNCCCCCN1c2ccccc2N(c2ccccc2F)S1(=O)=O` [Example 66, 5-[3-(2-fluorophenyl)-2,2-dioxido-2,1,3-benzothiadiazol-1(3H)-yl]-N-methylpentan-1-amine], for which the IC50 was found to be 14.2 nM.

Consider `CN(C)CCCCCN1c2ccccc2N(c2ccccc2F)S1(=O)=O` [Example 67, 5-[3-(2-fluorophenyl)-2,2-dioxido-2,1,3-benzothiadiazol-1(3H)-yl]-N,N-dimethylpentan-1-amine], for which the IC50 stood at 298 nM.

Consider `CNCCCN1c2ccccc2N(c2cccc(Cl)c2)S1(=O)=O` [Example 68, 3-[3-(3-Chlorophenyl)-2,2-dioxido-2,1,3-benzothiadiazol-1(3H)-yl]-N-methylpropan-1-amine hydrochloride], for which the IC50 turned out to be 84.1 nM.

In the case of `NCCCN1c2ccccc2N(c2c(F)cccc2F)S1(=O)=O` [Example 69, 3-[3-(2,6-Difluorophenyl)-2,2-dioxido-2,1,3-benzothiadiazol-1(3H)-yl]propan-1-amine hydrochloride], the IC50 stood at 10.4 nM.

For the compound `NCCCN1c2ccccc2N(c2c(F)cc(F)cc2F)S1(=O)=O` [Example 70, 3-[2,2-Dioxido-3-(2,4,6-trifluorophenyl)-2,1,3-benzothiadiazol-1(3H)-yl]propan-1-amine hydrochloride], the IC50 was found to be 277 nM.

For the compound `CNCCCN1c2ccc(-c3ccccc3)cc2N(c2ccccc2F)S1(=O)=O` [Example 71, 3-[3-(2-fluorophenyl)-2,2-dioxido-5-phenyl-2,1,3-benzothiadiazol-1(3H)-yl]-N-methylpropan-1-amine hydrochloride], the 50% inhibitory concentration (IC50) worked out at 206 nM.

Take `NCCCN1c2ccccc2N(c2ccc(F)cc2F)S1(=O)=O` [Example 72, 3-[3-(2,4-difluorophenyl)-2,2-dioxido-2,1,3-benzothiadiazol-1(3H)-yl]propan-1-amine hydrochloride]: the IC50 came out at 259 nM.

With `CNCCCN1c2cccc(F)c2N(c2ccccc2F)S1(=O)=O` [Example 73, 3-[4-fluoro-3-(2-fluorophenyl)-2,2-dioxido-2,1,3-benzothiadiazol-1(3H)-yl]-N-methylpropan-1-amine hydrochloride], the concentration for half-maximal inhibition (IC50) came out at 2.81 nM.

Regarding `NCCCN1c2cccc(F)c2N(c2ccccc2F)S1(=O)=O` [Example 74, 3-[4-fluoro-3-(2-fluorophenyl)-2,2-dioxido-2,1,3-benzothiadiazol-1(3H)-yl]propan-1-amine hydrochloride], the IC50 worked out at 2.7 nM.

For `CNCCCN1c2ccccc2N(c2ccc(F)cc2F)S1(=O)=O` [Example 75, 3-[3-(2,4-difluorophenyl)-2,2-dioxido-2,1,3-benzothiadiazol-1(3H)-yl]-N-methylpropan-1-amine hydrochloride], the IC50 worked out at 4.17 nM.

For `CNCCCN1c2c(F)cccc2N(c2ccccc2F)S1(=O)=O` [Example 76, 3-[7-fluoro-3-(2-fluorophenyl)-2,2-dioxido-2,1,3-benzothiadiazol-1(3H)-yl]-N-methylpropan-1-amine], the IC50 came out at 5.24 nM.

For `CNCCCN1c2ccccc2N(c2c(F)cc(F)cc2F)S1(=O)=O` [Example 77, 3-[2,2-Dioxido-3-(2,4,6-trifluorophenyl)-2,1,3-benzothiadiazol-1(3H)-yl]-N-methylpropan-1-amine hydrochloride], the IC50 came out at 15 nM.

On to `CNCCCN1c2c(F)cccc2N(c2ccc(F)cc2F)S1(=O)=O` [Example 78, 3-[3-(2,4-Difluorophenyl)-7-fluoro-2,2-dioxido-2,1,3-benzothiadiazol-1(3H)-yl]-N-methylpropan-1-amine hydrochloride], for which the 50% inhibitory concentration (IC50) stood at 45 nM.

For the compound `CNCCCN1c2cccc(F)c2N(c2ccc(F)cc2F)S1(=O)=O` [Example 79, 3-[3-(2,4-Difluorophenyl)-4-fluoro-2,2-dioxido-2,1,3-benzothiadiazol-1(3H)-yl]-N-methylpropan-1-amine hydrochloride], the IC50 was 9 nM.

For the compound `CN(C)CCCN1c2c(F)cccc2N(c2ccc(F)cc2F)S1(=O)=O` [Example 80, 3-[3-(2,4-Difluorophenyl)-7-fluoro-2,2-dioxido-2,1,3-benzothiadiazol-1(3H)-yl]-N,N-dimethylpropan-1-amine hydrochloride], the IC50 is 448 nM.

For the compound `CNCCCCN1c2ccccc2N(c2c(F)cc(F)cc2F)S1(=O)=O` [Example 81, 4-[2,2-Dioxido-3-(2,4,6-trifluorophenyl)-2,1,3-benzothiadiazol-1(3H)-yl]-N-methylbutan-1-amine hydrochloride], the IC50 was 19 nM.

Take `CNCCCCN1c2ccccc2N(c2ccc(F)cc2)S1(=O)=O` [Example 82, 4-[3-(4-Fluorophenyl)-2,2-dioxido-2,1,3-benzothiadiazol-1(3H)-yl]-N-methylbutan-1-amine hydrochloride]: the IC50 was 46 nM.

`CNCCCCN1c2ccccc2N(c2c(F)cccc2F)S1(=O)=O` [Example 83, 4-[3-(2,6-Difluorophenyl)-2,2-dioxido-2,1,3-benzothiadiazol-1(3H)-yl]-N-methylbutan-1-amine hydrochloride]: the IC50 is 2 nM.

`O=S1(=O)N(CCCNC2CC2)c2ccccc2N1c1c(F)cccc1F` [Example 84, N-{3-[3-(2,6-Difluorophenyl)-2,2-dioxido-2,1,3-benzothiadiazol-1(3H)-yl]propyl}cyclopropanamine hydrochloride]: the IC50 is 21 nM.

Regarding `O=S1(=O)N(CCCNC2CC2)c2ccccc2N1c1ccc(F)cc1F` [Example 85, N-{3-[3-(2,4-Difluorophenyl)-2,2-dioxido-2,1,3-benzothiadiazol-1(3H)-yl]propyl}cyclopropanamine hydrochloride], the IC50 worked out at 203 nM.

On to `O=S1(=O)N(CCCCNC2CC2)c2ccccc2N1c1c(F)cccc1F` [Example 86, N-{4-[3-(2,6-Difluorophenyl)-2,2-dioxido-2,1,3-benzothiadiazol-1(3H)-yl]butyl}cyclopropanamine hydrochloride], for which the IC50 was 21 nM.

As to `CNCCCCN1c2ccccc2N(c2ccc(F)cc2Cl)S1(=O)=O` [Example 87, 4-[3-(2-chloro-4-fluorophenyl)-2,2-dioxido-2,1,3-benzothiadiazol-1(3H)-yl]-N-methylbutan-1-amine hydrochloride], the IC50 was determined as 82 nM.

On to `CNCCCCCN1c2ccccc2N(c2ccc(F)cc2Cl)S1(=O)=O` [Example 89, 5-[3-(2-chloro-4-fluorophenyl)-2,2-dioxido-2,1,3-benzothiadiazol-1(3H)-yl]-N-methylpentan-1-amine hydrochloride], for which the IC50 amounted to 2110 nM.

The inhibition is how much of the control response was suppressed. The term IC50 denotes the concentration that gives 50% inhibition.

These data come from patent publication US20080161366A1, “AMINOALKYL SUBSTITUTED ARYL SULFAMIDE DERIVATIVES AND METHODS OF THEIR USE” (Wyeth, priority 2006, published 2008).
